In patent US20070049564A1 (Wyeth, priority 2005, published 2007):
Read-outs that look alike come from different tables or passages of the source.

Key:
S. typhimurium GC 2172 = experiment: MIC, broth microdilution; conditions: Salmonella enterica, TYPHIMURIUM
E. coli GC 2272 = experiment: MIC, broth microdilution; conditions: Escherichia coli
E. coli GC 3226 = experiment: MIC, broth microdilution; conditions: Escherichia coli
S. aureus GC 4536 = experiment: MIC, broth microdilution; conditions: Staphylococcus aureus
S. agalactiae GC 4564 = experiment: MIC, broth microdilution; conditions: Streptococcus agalactiae
S. aureus GC 6467 = experiment: MIC, broth microdilution; conditions: Staphylococcus aureus
E. coli GC 4560 = experiment: MIC, broth microdilution; conditions: Escherichia coli
S. pneumoniae* GC 4465 = experiment: MIC, broth microdilution; conditions: Streptococcus pneumoniae
E. coli GC 2232 = experiment: MIC, broth microdilution; conditions: Escherichia coli
E. faecalis GC 2265 = experiment: MIC, broth microdilution; conditions: Enterococcus faecalis
Staph. = experiment: Range of MIC for Staph. strains, including MRSA; conditions: Staphylococcus aureus
E. faecalis GC 2267 = experiment: MIC, broth microdilution; conditions: Enterococcus faecalis
E. coli = experiment: Range of MIC for E. coli strains; conditions: Escherichia coli
E. faecalis GC 4555 = experiment: MIC, broth microdilution; conditions: Enterococcus faecalis
E. coli GC 2231 = experiment: MIC, broth microdilution; conditions: Escherichia coli
E. coli GC 2203 = experiment: MIC, broth microdilution; conditions: Escherichia coli
E. faecium GC 2243 = experiment: MIC, broth microdilution; conditions: Enterococcus faecium
S. aureus GC 6469 = experiment: MIC, broth microdilution; conditions: Staphylococcus aureus
S. aureus GC 6466 = experiment: MIC, broth microdilution; conditions: Staphylococcus aureus
E. coli GC 6465 = experiment: MIC, broth microdilution; conditions: Escherichia coli
Experimental: Antimicrobial susceptibility testing. The in vitro activities of the antibiotics are determined by the broth microdilution method as recommended by the National Committee for Clinical Laboratory Standards (NCCLS) (1). Mueller-Hinton II broth (MHBII)(BBL Cockeysville, Md.) is the medium employed in the testing procedures. Microtiter plates containing serial dilutions of each antimicrobial agent are inoculated with each organism to yield the appropriate density (10^5 CFU/ml) in a 100 μl final volume. The plates are incubated for 18-22 hours at 35° C. in ambient air.
Representative compounds were first incubated in mouse serum for an hour prior to the in vitro testing against a panel of selected gram-positive and gram-negative bacteria strains. All compounds were also pre-incubated in water for an hour prior to testing as control.

[1] = read-out: MINIMAL INHIBITORY CONCENTRATION MIC, pre-incubated in Human Serum
[2] = read-out: MINIMAL INHIBITORY CONCENTRATION MIC, pre-incubated in Mouse Serum
[3] = read-out: MINIMAL INHIBITORY CONCENTRATION MIC, pre-incubated in Water

Measured: MIC

CCC(C)(C)C(=O)OCOC(=O)N(CC(=O)Nc1cc(N(C)C)c2c(c1O)C(=O)C1=C(O)[C@]3(O)C(=O)C(C(N)=O)=C(O)[C@@H](N(C)C)[C@@H]3C[C@@H]1C2)C(C)(C)C [Example 44, ({[(2-{[(5aR,6aS,7S,10aS)-9-(aminocarbonyl)-4,7-bis(dimethylamino)-1,8,10a,11-tetrahydroxy-10,12-dioxo-5,5a,6,6a,7,10,10a,12-octahydrotetracen-2-yl]amino}-2-oxoethyl)(tert-butyl)amino]carbonyl}oxy)methyl 2,2-dimethylbutanoate]
4 µg/mL: E. coli GC 3226; GC3226, read-out: MINIMAL INHIBITORY CONCENTRATION MIC, pre-incubated in Mouse Serum | S. aureus GC 4536; GC4536, read-out: MINIMAL INHIBITORY CONCENTRATION MIC, pre-incubated in Water | S. agalactiae GC 4564; GC4564, read-out: MINIMAL INHIBITORY CONCENTRATION MIC, pre-incubated in Human Serum | S. agalactiae GC 4564; GC4564, read-out: MINIMAL INHIBITORY CONCENTRATION MIC, pre-incubated in Water | S. aureus GC 6467; GC6467, read-out: MINIMAL INHIBITORY CONCENTRATION MIC, pre-incubated in Water | E. coli GC 4560; GC4560, read-out: MINIMAL INHIBITORY CONCENTRATION MIC, pre-incubated in Human Serum | E. coli GC 4560; GC4560, read-out: MINIMAL INHIBITORY CONCENTRATION MIC, pre-incubated in Water | E. faecalis GC 2265; GC2265, read-out: MINIMAL INHIBITORY CONCENTRATION MIC, pre-incubated in Water | E. faecalis GC 2267; GC2267, read-out: MINIMAL INHIBITORY CONCENTRATION MIC, pre-incubated in Human Serum | E. faecalis GC 2267; GC2267, read-out: MINIMAL INHIBITORY CONCENTRATION MIC, pre-incubated in Water | E. faecalis GC 4555; GC4555, read-out: MINIMAL INHIBITORY CONCENTRATION MIC, pre-incubated in Human Serum | E. faecalis GC 4555; GC4555, read-out: MINIMAL INHIBITORY CONCENTRATION MIC, pre-incubated in Water | E. faecium GC 2243; GC2243, read-out: MINIMAL INHIBITORY CONCENTRATION MIC, pre-incubated in Human Serum | E. faecium GC 2243; GC2243, read-out: MINIMAL INHIBITORY CONCENTRATION MIC, pre-incubated in Water | S. aureus GC 6469; GC6469, read-out: MINIMAL INHIBITORY CONCENTRATION MIC, pre-incubated in Water
2 to 8 µg/mL: E. coli; 20 h, read-out: Range of MIC, E. coli (Mouse Serum)
8 µg/mL: S. typhimurium GC 2172; [2] | E. coli GC 6465; GC6465, read-out: MINIMAL INHIBITORY CONCENTRATION MIC, pre-incubated in Mouse Serum
1 µg/mL: S. agalactiae GC 4564; GC4564, read-out: MINIMAL INHIBITORY CONCENTRATION MIC, pre-incubated in Mouse Serum | S. pneumoniae* GC 4465; [2]
2 to 4 µg/mL: Staph.; MRSA, read-out: Range of MIC, Staph (Water) | Staph.; read-out: Minimum inhibitory concentration (MIC), Staph (Human Serum) | Staph.; read-out: Minimum inhibitory concentration (MIC), Staph (Water)
2 µg/mL: E. coli GC 2272; GC2272, read-out: MINIMAL INHIBITORY CONCENTRATION MIC, pre-incubated in Mouse Serum | S. aureus GC 4536; GC4536, read-out: MINIMAL INHIBITORY CONCENTRATION MIC, pre-incubated in Human Serum | S. aureus GC 4536; GC4536, read-out: MINIMAL INHIBITORY CONCENTRATION MIC, pre-incubated in Mouse Serum | S. aureus GC 6467; GC6467, read-out: MINIMAL INHIBITORY CONCENTRATION MIC, pre-incubated in Human Serum | S. aureus GC 6467; GC6467, read-out: MINIMAL INHIBITORY CONCENTRATION MIC, pre-incubated in Mouse Serum | E. coli GC 4560; GC4560, read-out: MINIMAL INHIBITORY CONCENTRATION MIC, pre-incubated in Mouse Serum | S. pneumoniae* GC 4465; [1] | S. pneumoniae* GC 4465; [3] | E. coli GC 2232; GC2232, read-out: MINIMAL INHIBITORY CONCENTRATION MIC, pre-incubated in Mouse Serum | E. faecalis GC 2265; GC2265, read-out: MINIMAL INHIBITORY CONCENTRATION MIC, pre-incubated in Human Serum | E. faecalis GC 2265; GC2265, read-out: MINIMAL INHIBITORY CONCENTRATION MIC, pre-incubated in Mouse Serum | Staph.; MRSA, read-out: Range of MIC, Staph (Mouse Serum) | E. faecalis GC 2267; GC2267, read-out: MINIMAL INHIBITORY CONCENTRATION MIC, pre-incubated in Mouse Serum | E. faecalis GC 4555; GC4555, read-out: MINIMAL INHIBITORY CONCENTRATION MIC, pre-incubated in Mouse Serum | E. coli GC 2231; GC2231, read-out: MINIMAL INHIBITORY CONCENTRATION MIC, pre-incubated in Mouse Serum | E. coli GC 2203; GC2203, read-out: MINIMAL INHIBITORY CONCENTRATION MIC, pre-incubated in Mouse Serum | E. faecium GC 2243; GC2243, read-out: MINIMAL INHIBITORY CONCENTRATION MIC, pre-incubated in Mouse Serum | S. aureus GC 6469; GC6469, read-out: MINIMAL INHIBITORY CONCENTRATION MIC, pre-incubated in Human Serum | S. aureus GC 6469; GC6469, read-out: MINIMAL INHIBITORY CONCENTRATION MIC, pre-incubated in Mouse Serum | S. aureus GC 6466; GC6466, read-out: MINIMAL INHIBITORY CONCENTRATION MIC, pre-incubated in Human Serum | S. aureus GC 6466; GC6466, read-out: MINIMAL INHIBITORY CONCENTRATION MIC, pre-incubated in Mouse Serum | S. aureus GC 6466; GC6466, read-out: MINIMAL INHIBITORY CONCENTRATION MIC, pre-incubated in Water
> 64 µg/mL: S. typhimurium GC 2172; [1] | S. typhimurium GC 2172; [3] | E. coli GC 2272; GC2272, read-out: MINIMAL INHIBITORY CONCENTRATION MIC, pre-incubated in Human Serum | E. coli GC 2272; GC2272, read-out: MINIMAL INHIBITORY CONCENTRATION MIC, pre-incubated in Water | E. coli GC 3226; GC3226, read-out: MINIMAL INHIBITORY CONCENTRATION MIC, pre-incubated in Human Serum | E. coli GC 3226; GC3226, read-out: MINIMAL INHIBITORY CONCENTRATION MIC, pre-incubated in Water | E. coli GC 2232; GC2232, read-out: MINIMAL INHIBITORY CONCENTRATION MIC, pre-incubated in Human Serum | E. coli GC 2232; GC2232, read-out: MINIMAL INHIBITORY CONCENTRATION MIC, pre-incubated in Water | E. coli; read-out: Minimum inhibitory concentration (MIC), E. coli (Human Serum) | E. coli; read-out: Minimum inhibitory concentration (MIC), E. coli (water) | E. coli; read-out: Range of MIC, E. coli (Water) | E. coli GC 2231; GC2231, read-out: MINIMAL INHIBITORY CONCENTRATION MIC, pre-incubated in Human Serum | E. coli GC 2231; GC2231, read-out: MINIMAL INHIBITORY CONCENTRATION MIC, pre-incubated in Water | E. coli GC 2203; GC2203, read-out: MINIMAL INHIBITORY CONCENTRATION MIC, pre-incubated in Human Serum | E. coli GC 2203; GC2203, read-out: MINIMAL INHIBITORY CONCENTRATION MIC, pre-incubated in Water | E. coli GC 6465; GC6465, read-out: MINIMAL INHIBITORY CONCENTRATION MIC, pre-incubated in Human Serum | E. coli GC 6465; GC6465, read-out: MINIMAL INHIBITORY CONCENTRATION MIC, pre-incubated in Water
